Results as given in patent EP0542837B1, “PROPYLAMINE DERIVATIVES” (NORGINE LIMITED, priority 1990, dated 1992).
Read-outs that look alike come from different tables or passages of the source.

System: Guinea-pig ileum muscle
Assay: Antispasmodic activity: reduction of the acetylcholine contraction of isolated ileum in a gut bath
Type: cell-based
Protocol: Antispasmodic activity was determined using standard methodology. (d) Guinea-pig ileum muscle was suspended in a gut bath, in oxygenated Tyrode's solution at 37°. Doses of acetylcholine were added to the gut bath fluid, the contraction recorded, and the bath washed out with fresh Tyrode's solution. This was carried out repeatedly to establish a dose of acetylcholine to cause a sub-maximal response. This dose of acetylcholine was used repeatedly, on a 2 minute cycle to establish steady responses. Doses of antispasmodic were then added 30 seconds before the acetylcholine dose to establish the magnitude of reduction of the acetylcholine contraction.

CN1C2CCC1CC(OC(=O)C(CO)c1ccccc1)C2 (racemic) [atropine sulphate, reference compound]
equivalent amount for antispasmodic activity: 0.06 ng

CCN(CCCc1ccccc1)CCCc1ccc(O)cc1 [compound (II), N-ethyl, N-(3-phenylpropyl), 3-(4-hydroxyphenyl)-propylamine]
equivalent amount for antispasmodic activity (equi-active amounts of the amine hydrochloride and atropine sulphate, acetylcholine contraction, oxygenated Tyrode's solution at 37°): 1.5 ng | antispasmodic activity times less than the standard (relative to atropine sulphate as standard, acetylcholine contraction, oxygenated Tyrode's solution at 37°, antispasmodic added 30 seconds before the acetylcholine dose): approximately 25 times
